Earlier results as cited in publication PMC6413085, “A Validated HPLC-MS/MS Assay for 14-O-[(4,6-Diaminopyrimidine-2-yl)thioacetyl] Mutilin in Biological Samples and Its Pharmacokinetic, Distribution and Excretion via Urine and Feces in Rats” (Molecules, 2019).
Like-named read-outs stand apart in the source and are kept apart here.

Columns and labels:
[1] = in vivo; cited from earlier work
[2] = rat, in vivo, cited from earlier work; for time at which Cmax was achieved: 5 mg/kg
[3] = rabbit, in vivo, iv, 25 mg/kg; cited from earlier work

For `C=C[C@]1(C)C[C@@H](OC(=O)CSC(C)(C)CNC(=O)[C@H](N)C(C)C)[C@]2(C)[C@H](C)CC[C@]3(CCC(=O)[C@H]32)[C@@H](C)[C@@H]1O` [valnemulin], the “absolute bioavailability following oral administration” value [1] is listed as 36.68% and the “absolute bioavailability following oral administration” value ([2]; po) is listed as 100%.

In the case of `C=C[C@]1(C)C[C@@H](OC(=O)CSc2nnc(N)s2)[C@]2(C)[C@H](C)CC[C@]3(CCC(=O)[C@H]32)[C@@H](C)[C@@H]1O` [14-O-[(2-amino-1,3,4-thiadiazole-5-yl)thioacetyl] mutilin], the “time at which Cmax was achieved” value ([2]; iv) is given as 0.08 h, the “time at which Cmax was achieved” value ([2]; po) is given as 0.75 h and the “absolute bioavailability following oral administration” value ([2]; po) is given as 35.81%.

In the case of `C=CC1(C)CC(OC(=O)CSc2nc(N)cc(O)n2)C2(C)C(C)CCC3(CCC(=O)C32)C(C)C1O` (stereo not drawn) [14-O-[(4-amino-6-hydroxy-pyrimidine-2-yl)thioacetyl] mutilin], the “time at which Cmax was achieved” value [3] is given as 0.08 h.
